Data set [1] relates to normal human vaginal epithelial cells. Kind of data set: MTT cell viability assay, vaginal epithelial cells. Format: cell-based. The following applies: read-out: IC50[MTT] vaginal epithelial cells. As for the experimental part: (§1) Briefly, exponential growing vaginal, ectocervical, and endocervical epithelial cells were seeded into 96-well plates at a density of 2×10^4 cells/well and incubated for 24 h at 37° C. prior to drug exposure. On the day of treatment, culture medium was aspirated from the wells and replaced with fresh medium containing serial two-fold drug concentrations ranging from 7.8 μM to 1000 μM. N-9 (IGEPAL CO-630; Rhone Poulenc, Cranbury, N.J.) was diluted in PBS. Triplicate wells were used for each treatment. Culture plates were then incubated for 3 hours before adding 10 μl of MTT solution (5 mg/ml in PBS) to each well. Wells containing only medium and MTT were used as control for each plate. The tetrazolium/formazan reaction was allowed to proceed for 4 hours at 37° C., and then 100 μl of the solubilization buffer (10% sodium dodecyl sulfate in 0.1% HCl) was added to all wells and mixed thoroughly to dissolve the dark blue formazan crystals. After an overnight incubation at 37° C., the OD at 540 nm were measured using a 96-well multiscanner autoreader with the solubilization buffer serving as blank. To translate the OD540 values into the number of live cells in each well, the OD540 values were compared to those of standard OD540-versus-cell number curves generated for each cell line. The percent survival was calculated using the formula: % survival=Live cell number [test]/Live cell number [control]×100. The results were expressed as mean IC50 values for three independent experiments. The IC50 [MTT] was defined as the concentration required for 50% reduction in cell survival.
(§2) Cell viability was measured by the MTT assay.
On the technique in general: Tetrazolium assays rely on reduction of a dye to a coloured formazan, in cell work by metabolically active cells.

Data set [2] concerns normal human endocervical epithelial cells. Kind of data set: MTT cell viability assay, endocervical epithelial cells. The format is cell-based. The following applies: read-out: IC50[MTT] endocervical epithelial cells. The procedure:
as §1, §2

Data set [3] in a line: partition coefficient n-octanol/water (Pa). The format is physicochemical. The following applies: UV absorption. The procedure: Partition of the test compounds between n-octanol and water as a measure of their lipophilicity was determined by taking the UV absorption of each compound in n-octanol, water-saturated n- octanol (1:1), and n-octanol-saturated water (1:1). The UV absorption maxima were determined by selecting a wavelength with the maximum absorption peak in the water-saturated octanol layer and the corresponding peak in the octanol-saturated water. Three absorption spectra were obtained for each compound. The partion coefficient (Pa) was calculated as the ratio of the compound concentration present in the lipid phase to the compound concentration present in the aqueous phase.

Data set [4] relates to normal human ectocervical epithelial cells. Kind of data set: MTT cell viability assay, ectocervical epithelial cells. Format: cell-based. The following applies: read-out: IC50[MTT] ectocervical epithelial cells. As for the experimental part:
as §1, §2

Data set [5] deals with T1, purified recombinant HIV-1 RT (Human immunodeficiency virus type 1 group M subtype B, UniProt P03366).
T1 construct: purified recombinant HIV-1 RT
Kind of data set: cell-free Quan-T-RT RT inhibition assay (scintillation proximity). The following applies: IC50 [rRT], purified recombinant HIV-1 RT, cell-free. Format: biochemical. The procedure:
Each of the thirty one thiourea compounds was tested for RT inhibitory activity against purified recombinant HIV-1 RT using the cell-free Quan-T-RT system (Amersham Corp., Arlington Heights, Ill.), which utilizes the scintillation proximity assay principle.
(In a scintillation proximity assay essentially only radioactivity close to the scintillant gives light.)

The next data set concerns human sperm. Kind of data set: sperm immobilizing activity (SIA) by CASA. Format: cell-based. The following applies: for EC50: read-out: EC50 [SIA]; for effective 100% inhibitory concentration (EC100), sperm motility: FIG. 1, CASA. As for the experimental part:
To evaluate the effect of each of the 31 thiourea compounds on human sperm motility and kinematics, highly motile fractions of sperm were prepared from donor semen (n=8) by discontinuous (90-45%) gradient centrifugation using Enhance Plus medium (Conception Technologies, San Diego, Calif.) and the “swim-up” method. The swim-up method was used after density gradient centrifugation, washing, and resuspension of sperm in BWW-3% BSA. Pooled swim-up fraction was washed once prior to spermicidal assay.
All donor semen specimens were obtained after informed consent and in compliance with the guidelines of the Parker Hughes Institute Institutional Review Board. […] The stock solutions of thioureas were prepared in DMSO (100 mM) and diluted in assay medium to yield the desired concentrations (up to 1000 μM). Corresponding volume of DMSO (either 0.5% or 1%) was added to control tubes. After 3 hours of incubation at 37° C., the percentage of motile sperm was evaluated by CASA [53, 62-64]. The percent motilities were compared with sham-treated control suspensions of motile sperm.
For CASA, 5-μl of each sperm suspension was loaded into a 20-μm Microcell slide (Conception Technologies) in a counting chamber at 37° C. At least 5-8 fields per slide were scanned for analysis using a Hamilton Thome Integrated Visual Optical System (IVOS), version 10 instrument (Hamilton Thome Research Inc., Danvers, Mass.). Each field was recorded for 30 seconds. The computer calibrations were set at 30 frames at a frame rate of 30/second.
The sperm kinematics parameters that were determined included numbers of motile (MOT) and progressively (PRG) motile sperm; curvilinear velocity (VCL; a measure of the total distance traveled by a given sperm during the acquisition divided by the time elapsed); average path velocity (VAP; the spatially averaged path that eliminates the wobble of the sperm head), straight line velocity (VSL; the straight-line distance from beginning to end of track divided by time taken), beat cross frequency (BCF; frequency of sperm head crossing sperm average path), the amplitude of lateral head displacement (ALH; the mean width of sperm head oscillation), and the derivatives, straightness (STR=VSL/VAP×100) and linearity (LIN=VSL/VCL×100; departure of sperm track from a straight line). Data from each individual cell track were recorded and analyzed. At least 200 motile sperm were analyzed for each aliquot sampled.

Another data set concerns HIV-1 strain HTLVIIIB
Kind of data set: p24 antigen production in HIV-1 infected PBMCs. Format: cell-based. The following applies: Human immunodeficiency virus 1, PBMC. The procedure: The HTLVIIIB strain of HIV-1 was propagated in CCRF-CEM cells and the virus stocks obtained from cell-free supernatants of infected cells were titered using MT-2 cells. Cell-free supernatants were harvested and frozen in 1 ml aliquots at −70° C.
Stock solutions (10 mM) of thiourea compounds were prepared in dimethylsulfoxide (DMSO). Cells were cultured for 7 days in 96-well microtiter plates (100 μl/well; 2×10^6 cells/ml, triplicate wells) in the presence and absence of various concentrations (0.001 μM to 100 μM) of the thioureas. Cells from non-infected controls were handled in the same way except the virus was omitted from the preparation. Aliquots of culture supernatants were removed from the wells on the 7th day after infection for p24 antigen as previously described. The p24 enzyme immunoassay was the unmodified kinetic assay available commercially (Coulter Corporation/Immunotech, Inc., Westbrook, Me.). The assay uses a murine monoclonal antibody (mAb) to the HIV core protein coated onto microwell strips to which the antigen present in the test culture supernatant sample binds. The plates were read on a ELISA reader (Molecular Devices, Sunnyvale, Calif.) at 650 nm and p24 levels, expressed as ng/ml, were calculated against known standards supplied by Coulter/Imrunotech, Inc. Percent viral inhibition was calculated by comparing the p24 values for the test substance-treated infected cells with the p24 values for untreated infected cells (i.e., virus controls). […]

Where [6] appears, read: motile human sperm, 3 hours at 37° C., CASA.
[7] abbreviates: HIV-1 HTLVIIIB infected human PBMC, p24 antigen on 7th day, read-out: IC50 [p24].
Where [8] appears, read: HIV-1 HTLVIIIB infected human PBMC, values in nM, read-out: IC50[p24].

The structures appear in SMILES notation. Where two headings read alike, the source gives them in different places.

For `S=C(NCCc1ccccn1)Nc1ccccn1` [HI 207], the IC50 (in general, the concentration at which inhibition is half-maximal) in data set [1] (3 h exposure, MTT) was greater than 1000 µM; in data set [2] (3 h exposure, MTT), greater than 1000 µM; in data set [4] (3 h exposure, MTT), greater than 1000 µM; in data set [5] it was 0.39 µM; in the data set with HIV-1 strain HTLVIIIB (setting [7]) it was 270 nM. The “Pa, Partition coefficient” value in data set [3] is recorded as 2.32. Further, the EC50 (commonly the concentration at which the effect is half-maximal) with human sperm (setting [6]) came out at 279 µM.
As for `Fc1ccccc1CCNC(=S)Nc1ccc(Br)cn1` [HI 240], the IC50 was greater than 1000 µM in data set [1] (3 h exposure, MTT); greater than 1000 µM in data set [2] (3 h exposure, MTT); greater than 1000 µM in data set [4] (3 h exposure, MTT); 0.6 µM in data set [5]; less than 1 nM with HIV-1 strain HTLVIIIB (setting [7]); less than 1 nM in the data set with HIV-1 strain HTLVIIIB (setting [8]). Besides, the “Pa, Partition coefficient” value in data set [3] came to 1.20. In addition, in the data set on human sperm (setting [6]), the EC50 came to 147 µM.
For the molecule `S=C(NCCC1=CCCCC1)Nc1ccc(Br)cn1` [HI 346], the IC50 in data set [1] (3 h exposure, MTT) is greater than 1000 µM; in data set [2] (3 h exposure, MTT), 580 ± 48 µM; in data set [4] (3 h exposure, MTT), 765 ± 400 µM; in data set [5], 0.6 µM; in the data set on HIV-1 strain HTLVIIIB (read-out: IC50 [p24]), 3 nM; in the data set on HIV-1 strain HTLVIIIB (read-out: IC50[p24]), 3 nM. The “Pa, Partition coefficient” value in data set [3] was found to be 8.6. For the same molecule, the “effective 100% inhibitory concentration (EC100), sperm motility” value in the data set with human sperm was 0.25 mM. Moreover, in the data set on human sperm (setting [6]), the EC50 worked out at 42 µM.
For the molecule `CCCCCCCCCc1ccc(OCCOCCOCCOCCOCCOCCOCCOCCOCCO)cc1` [Compound N-9, nonoxynol-9, reference compound], the results for the IC50 in data set [1] (3 h), in data set [2] (3 h) and in data set [4] (3 h) were 64 µM, 32 µM and 58 µM, respectively. Also, the EC50 with human sperm (Homo sapiens, Sperm, 3 h) amounted to 81 µM.
With `S=C(NCCC1=CCCCC1)Nc1ccc(Cl)cn1` [HI 445], the IC50 in data set [1] (3 h exposure, MTT) came out at 578 ± 25 µM; in data set [2] (3 h exposure, MTT) it was 185 ± 21 µM; in data set [4] (3 h exposure, MTT) it was 692 ± 139 µM; in the data set on HIV-1 strain HTLVIIIB (read-out: IC50 [p24]) it was 3 nM; in the data set on HIV-1 strain HTLVIIIB (read-out: IC50[p24]) it was 3 nM. Further, the “Pa, Partition coefficient” value in data set [3] was found to be 6.3. The “effective 100% inhibitory concentration (EC100), sperm motility” value with human sperm is listed as 1 mM. In addition, the EC50 in the data set with human sperm (setting [6]) was determined as 57 µM.
As to `S=C(NCCc1ccccc1Cl)Nc1ccc(Br)cn1` [HI 253], the IC50 in data set [1] (3 h exposure, MTT) is greater than 1000 µM; in data set [2] (3 h exposure, MTT), greater than 1000 µM; in data set [4] (3 h exposure, MTT), greater than 1000 µM; in data set [5], 0.7 µM; with HIV-1 strain HTLVIIIB (setting [7]), less than 1 nM; in the data set with HIV-1 strain HTLVIIIB (setting [8]), less than 1 nM. Besides, the “Pa, Partition coefficient” value in data set [3] came out at 1.04. Moreover, the EC50 in the data set on human sperm (setting [6]) came to 70 µM.

Values taken from patent US6774139B1, “Dual function microbicides” (Parker Hughes Institute, priority 2000, dated 2004).
